# “And” between values parts separate entries of the source, which are not always exact repeats. Equal values may be shown once.
# Columns and labels:
# Cannabis plants [1] = experiment: Effects of chlorine dioxide on vegetative growth (grow tent, leaf count); type: in vivo; conditions: about 3 mg of chlorine dioxide per hour, 10 days; for Leaf Count # of new leaves / Leaf Count Final: Experimental tent, 240 cubic feet
# Description: Experiments were performed to determine the effects of using a continuous release dose of about 3 mg of chlorine dioxide per hour on the vegetative growth of Cannabis plants.
# Cannabis plants were placed in a grow tent and grown under artificial lighting for 10 days. Leaf counts were performed prior to placing in the tent and again after 10 days. Two separate grow tents were used, one for the experiment and one as the control. The total leaf count was compared between the experimental and control plants. Temperature and relative humidity measurements were taken 3 times per day to ensure both tents maintained the same environmental conditions.
# A pouch was hung from the top of the inside of the experimental tent. The pouch dispensed approximately 3 mg of chlorine dioxide per hour for the duration of the trial (10 days). Within the experimental tent the Cannabis plants were exposed to about 720 mg of gaseous chlorine dioxide over the 10-day period.
# Three Cannabis plants were placed into each tent. Two of the plants were of a Cannabis indica variety, and one plant was a Cannabis sativa variety. The photoperiod used in both tents was 20 hours with lights on followed by 4 hours with lights off. All watering, nutrients, pest control, etc. were identical for all plants.
# Cannabis plants [2] = experiment: Toxicity responses of Cannabis plants to foliar applications of chlorine dioxide; type: in vivo; conditions: for plants with damage to floral tissue (discoloration): after the third application
# Description: Regular and excessive rates of chlorine dioxide dissolved in water were sprayed up to five times at 2-day intervals on two varieties of Cannabis plants in both vegetative and flowering stages to determine if plant damage would result. Adverse effects were assessed based on visible discoloration or chlorosis of leaves and/or flowers. All plants were monitored for several days after the final application of chlorine dioxide.
# Experiments were performed in a greenhouse with temperatures between 70° F. and 80° F. Plants were potted in soil and appeared healthy and undamaged prior to treatment. All plants received the same amount of water and nutrients as controls, delivered via soil drenching. All plants, including controls, were the same age. At the beginning of the experiments, both flowering and vegetative plants had 3 weeks of the respective growth stage remaining.
# Concentrations of chlorine dioxide tested include 0, 50, 100, and 500 ppm. All chlorine dioxide solutions were prepared from 500 ppm stock solution, mixed in containers and used immediately. Each of the rates was tested in triplicate with separate plants in both stages of growth and with Cannabis indica and Cannabis sativa Cannabis plants. A common trigger sprayer bottle with the tip adjusted to a mist setting was used to apply treatments. Plants were sprayed until all leaves and stems were visibly wet. Each treatment rate was applied at 2-day intervals, and the number of applications ranged from 1 to 5 depending on the amount of damage that occurred to the plant.
# Damage was assessed 2 days after an application and prior to the next application. Treated plants were assessed for damage 6 days after the 5th and final spray treatment. Observed symptoms associated with the application of chlorine dioxide were necrosis of leaf tissue appearing as lesions between and across leaf veins and at leaf margins. Early symptoms included yellowing of leaves. Some lesions had dark brown borders and/or appeared desiccated.
# Cannabis plants [3] = experiment: Toxicity responses of Cannabis plants to applications of gaseous chlorine dioxide; type: in vivo
# Source text: Two varieties of Cannabis plants in both vegetative and flowering stages were exposed to various amounts of chlorine dioxide gas to determine if plant damage would result. Adverse effects were based on discoloration or chlorosis type damage to leaves and/or flowers. Leaves of each plant were collected prior to experiments and again 2 days post treatment for tissue analysis. Leaf samples were sent to a third-party laboratory for analysis of nutrients and total chloride (Cl^−). Tissue analysis of leaves pre- and post-treatment were compared to determine uptake of chlorine dioxide and/or its by-products. Control plants were used for visual comparison in determining plant damage. All plants were monitored for several days after application of chlorine dioxide gas. Plants were potted in soil and appeared healthy and undamaged unless otherwise noted. All plants including controls were of the same age for each growth stage. • The chlorine dioxide gas exposure was based on concentration with units of mg of chlorine dioxide per cubic foot of space.
# A first trial was performed in a space of 1550 cubic feet with four healthy plants in the space, two of which were in flower at week 5 of 8, and the other two of which had one week of vegetative stage remaining. The chlorine dioxide dose was 1.9 mg chlorine dioxide per cubic foot of space (one 25 g ProKure® G Fast Release Gas packet (ProKure® Solutions, Phoenix, AZ) and 4 liters of 500 ppm chlorine dioxide solution). Contact time was 18 hours, and the room was maintained in darkness for the duration of the contact time.
# A second trial was performed in a space of about 33400 cubic feet with 840 flowering plants at week eight of an eight-week cultivation cycle. All plants were healthy. […] The chlorine dioxide dose was 0.45 mg chlorine dioxide gas per cubic foot of space. Contact time was 18 hours, and the room was maintained in darkness for the first 12 hours, and grow lights came on for the last 6 hours of contact time, but the chlorine dioxide gas concentration monitoring was only performed for about 10 hours.
# [4] = test system: visible mold growing on flowers; experiment: Trial 3: gaseous chlorine dioxide treatment of flowering plants with visible mold; type: in vivo; conditions: 0.45 mg chlorine dioxide gas per cubic foot, 18 hours
# Description: A third trial was performed in a 33400 cubic foot space with 840 flowering plants at week eight of an eight-week cultivation cycle. Most plants had visible mold growing on flowers. The chlorine dioxide dose was 0.45 mg chlorine dioxide gas per cubic foot of space. Contact time was 18 hours, the room was maintained in darkness for the first 12 hours, and grow lights came on for the last 6 hours contact time, but the chlorine dioxide gas concentration monitoring was only performed for about 10 hours.
# The HVAC system for the 33400 cubic foot space that had 840 flowering plants in the last week of flower failed. Within hours the temperature and humidity increased, and visible mold growth was found on most of the flower within 24 hours. To treat the mold and potentially prevent the loss of over 100 pounds of Cannabis flower product, a dose of 0.45 mg chlorine dioxide gas per cubic foot was dispensed into the space (14× ProKure® G Fast Release Gas packets (25-gram) (ProKure® Solutions)). […] Essentially, it was never above the detection limit of the sensor (0.5 ppmv). […] An odor would be expected for this application rate, so the lack of odor provides further evidence that the concentration of chlorine dioxide remained below the odor threshold of about 0.03 to 0.1 ppmv. […]
# Alternaria = experiment: Spore trap testing, treated greenhouse: Alternaria; type: in vivo; conditions: 1.2 mg chlorine dioxide gas per hour per 4000 cubic feet
# Description: (§1) Very low-level chlorine dioxide protection using about 3 mg chlorine dioxide gas per hour for every 4000 cubic feet (50-gram ProKure® D Extended Release Gas product (ProKure® Solutions), 2000 mg total over 4 weeks) was tested to determine the effects on reduction and prevention of fungal microorganism counts. The rate of chlorine dioxide production will vary depending on the relative humidity (RH) in the room. The above rate is for RH range of 40-60%. Each 3 mg chlorine dioxide per hour product (50-gram) unit will cover 4000 cubic feet of space. The 4000 cubic foot volume is recommended for safety reasons. This volume of space insures that the concentration of the gas remains below the OSHA regulated Permissible Exposure Limit (PEL) which is 0.1 ppmv (time weighted average (TWA) over a 8-hours per day or 40-hour work week) and the Short Term Exposure Limit (STEL) which is 0.3 ppmv (TWA over any 15-minute period) for chlorine dioxide.
# (§2) All data is based on the dose described a unless otherwise noted. The spore counts per cubic meter prior to treatment are compared to spore counts per cubic meter post treatment with the treatment time indicated. […]
# (§3) Treatment was performed using 1.2 mg chlorine dioxide gas per hour per 4000 cubic feet. […] The fungus could not be detected by visual inspection after about 30 days of treatment. […]
# Ascospores = experiment: Spore trap testing, treated greenhouse: Ascospores; type: in vivo; conditions: 1.2 mg chlorine dioxide gas per hour per 4000 cubic feet
# Description: as §1, §2, §3
# Aureobasidium = experiment: Spore trap testing, treated greenhouse: Aureobasidium; type: in vivo; conditions: 1.2 mg chlorine dioxide gas per hour per 4000 cubic feet
# Description: as §1, §2, §3
# Basidiospores = experiment: Spore trap testing, treated greenhouse: Basidiospores; type: in vivo; conditions: 1.2 mg chlorine dioxide gas per hour per 4000 cubic feet
# Description: as §1, §2, §3
# Bipolaris/Drechslera = experiment: Spore trap testing, treated greenhouse: Bipolaris/Drechslera; type: in vivo; conditions: 1.2 mg chlorine dioxide gas per hour per 4000 cubic feet
# Description: as §1, §2, §3
# Chaetomium = experiment: Spore trap testing, treated greenhouse: Chaetomium; type: in vivo; conditions: 1.2 mg chlorine dioxide gas per hour per 4000 cubic feet
# Description: as §1, §2, §3
# Cladosporium = experiment: Spore trap testing, treated greenhouse: Cladosporium; type: in vivo; conditions: 1.2 mg chlorine dioxide gas per hour per 4000 cubic feet
# Description: as §1, §2, §3
# Fusarium = experiment: Spore trap testing, treated greenhouse: Fusarium; type: in vivo; conditions: 1.2 mg chlorine dioxide gas per hour per 4000 cubic feet
# Description: as §1, §2, §3
# Oidium = experiment: Spore trap testing, treated greenhouse: Oidium; type: in vivo; conditions: 1.2 mg chlorine dioxide gas per hour per 4000 cubic feet
# Description: as §1, §2, §3
# Penicillium/Aspergillus = experiment: Spore trap testing, treated greenhouse: Penicillium/Aspergillus; type: in vivo; conditions: 1.2 mg chlorine dioxide gas per hour per 4000 cubic feet
# Description: as §1, §2, §3
# Smuts/Myxomycetes = experiment: Spore trap testing, treated greenhouse: Smuts/Myxomycetes; type: in vivo; conditions: 1.2 mg chlorine dioxide gas per hour per 4000 cubic feet
# Description: as §1, §2, §3
# Torula = experiment: Spore trap testing, treated greenhouse: Torula; type: in vivo; conditions: 1.2 mg chlorine dioxide gas per hour per 4000 cubic feet
# Description: as §1, §2, §3
# Ulocladium = experiment: Spore trap testing, treated greenhouse: Ulocladium; type: in vivo; conditions: 1.2 mg chlorine dioxide gas per hour per 4000 cubic feet
# Description: as §1, §2, §3
# total spores = experiment: Spore trap testing, treated greenhouse: Total spores; type: in vivo; conditions: 1.2 mg chlorine dioxide gas per hour per 4000 cubic feet
# Description: as §1, §2, §3
# [5] = test system: unidentified fungal strain having an appearance similar to powdery mildew; experiment: Visual inspection of fungal infection on greenhouse mother plants; type: in vivo; conditions: 1.2 mg chlorine dioxide gas per hour per 4000 cubic feet, 4500 mother plants
# Description: An experimental trial was performed in a greenhouse with approximately 1×10^6 cubic feet of space holding 4500 mother plants. All plants were potted in soil and were approximately 5-7 feet tall, depending on whether cuttings had recently been taken for clone propagation. Plants evidenced visible signs of infection with an unidentified fungal strain having an appearance similar to powdery mildew. The fungus was actively growing and covered most leaves and major stalks. The fungus was a strain that only infected the surface of the plants and was not systemic in the plants.
# Treatment was performed using 1.2 mg chlorine dioxide gas per hour per 4000 cubic feet. Spore trap testing was performed pre-treatment and at seven days post-treatment. The fungus could not be detected by visual inspection after about 30 days of treatment. Treatment continued as a preventative measure, with further spore trap testing at 45 days post treatment. Spore trap data follows below in Table 5.
# [6] = cited from earlier work
# [7] = 500 ppm foliar spray, all plants, after the fifth application
structure (smiles),measurement,setting,value
[O][Cl+][O-] [chlorine dioxide],Leaf Count # of new leaves,Cannabis plants [1]; Indica,68 and 36
same,Leaf Count Final,Cannabis plants [1]; Indica,92 and 61
same,Leaf Count # of new leaves,Cannabis plants [1]; Sativa,52
same,Leaf Count Final,Cannabis plants [1]; Sativa,83
same,visible sign of adverse effects,Cannabis plants [1]; 240 cubic feet tent,none of the plants showed any visible sign of adverse effects
same,foliar or flower tissue damage,"Cannabis plants [2]; 50 ppm chlorine dioxide in water, foliar spray, five applications at 2-day intervals",No foliar or flower tissue damage was visible
same,plants exhibiting damage to leaves,"Cannabis plants [2]; 100 ppm foliar spray, indica-type flowering plants, two days after the 4th application",Two out of the three
same,damage to leaves or flowers,"Cannabis plants [2]; 100 ppm foliar spray, sativa-type flowering plants",None of the sativa-type flowering plants exhibited damage to leaves or flowers
same,visible damage to leaves,"Cannabis plants [2]; 100 ppm foliar spray, vegetative plants of both varieties",exhibited visible damage to leaves following the fourth application
same,smell compared with control plants,Cannabis plants [2]; [7],did not have the same smell as control plants
same,tissue damage,Cannabis plants [2]; [7],exhibited tissue damage after the fifth application
same,leaf damage,"Cannabis plants [2]; 500 ppm foliar spray, all plants, single application",exhibited leaf damage 24 to 48 hours after a single application
same,plants with damage to floral tissue (discoloration),"Cannabis plants [2]; 500 ppm foliar spray, indica-type plants",2 of the 3
same,plants with damage to floral tissue (discoloration),"Cannabis plants [2]; 500 ppm foliar spray, sativa-type plants",1 of the 3
same,assessment of the dose,"Cannabis plants [3]; Trial 1, 1.9 mg chlorine dioxide per cubic foot",considered detrimental
same,plant death,"Cannabis plants [3]; Trial 1, 1.9 mg chlorine dioxide per cubic foot, 18 hours",none of the 4 plants died
same,plant damage,"Cannabis plants [3]; Trial 1, 1.9 mg chlorine dioxide per cubic foot, 18 hours, 24-48 hours post-treatment",all 4 plants showed damage in the form of yellowing and chlorosis
same,plant appearance,"Cannabis plants [3]; Trial 1, 1.9 mg chlorine dioxide per cubic foot, immediately following the 18 hours of contact time",the plants still appeared healthy
same,plant damage,"Cannabis plants [3]; Trial 2, 0.45 mg chlorine dioxide per cubic foot, 18 hours, 840 healthy flowering plants",All plants remained healthy and undamaged
same,visible mold on the plants after the application,[4],No mold was visible on the plants after the application
same,Alternaria spore Count,Alternaria; 7 Days Post-Treatment,0 per cubic meter
same,Alternaria spore Count,Alternaria; 45 Days Post-Treatment,0 per cubic meter
same,Ascospores Count,Ascospores; 7 Days Post-Treatment,27 per cubic meter
same,Ascospores Count,Ascospores; 45 Days Post-Treatment,0 per cubic meter
same,Aureobasidium spore Count,Aureobasidium; 7 Days Post-Treatment,0 per cubic meter
same,Aureobasidium spore Count,Aureobasidium; 45 Days Post-Treatment,0 per cubic meter
same,Basidiospores Count,Basidiospores; 7 Days Post-Treatment,53 per cubic meter
same,Basidiospores Count,Basidiospores; 45 Days Post-Treatment,0 per cubic meter
same,Bipolaris/Drechslera spore Count,Bipolaris/Drechslera; 7 Days Post-Treatment,0 per cubic meter
same,Bipolaris/Drechslera spore Count,Bipolaris/Drechslera; 45 Days Post-Treatment,0 per cubic meter
same,Chaetomium spore Count,Chaetomium; 7 Days Post-Treatment,0 per cubic meter
same,Chaetomium spore Count,Chaetomium; 45 Days Post-Treatment,0 per cubic meter
same,Cladosporium spore Count,Cladosporium; 7 Days Post-Treatment,54 per cubic meter
same,Cladosporium spore Count,Cladosporium; 45 Days Post-Treatment,0 per cubic meter
same,Fusarium spore Count,Fusarium; 7 Days Post-Treatment,0 per cubic meter
same,Fusarium spore Count,Fusarium; 45 Days Post-Treatment,0 per cubic meter
same,Oidium spore Count,Oidium; 7 Days Post-Treatment,13 per cubic meter
same,Oidium spore Count,Oidium; 45 Days Post-Treatment,0 per cubic meter
same,Penicillium/Aspergillus spore Count,Penicillium/Aspergillus; 7 Days Post-Treatment,0 per cubic meter
same,Penicillium/Aspergillus spore Count,Penicillium/Aspergillus; 45 Days Post-Treatment,0 per cubic meter
same,Smuts/Myxomycetes spore Count,Smuts/Myxomycetes; 7 Days Post-Treatment,173 per cubic meter
same,Smuts/Myxomycetes spore Count,Smuts/Myxomycetes; 45 Days Post-Treatment,13 per cubic meter
same,Torula spore Count,Torula; 7 Days Post-Treatment,0 per cubic meter
same,Torula spore Count,Torula; 45 Days Post-Treatment,0 per cubic meter
same,Ulocladium spore Count,Ulocladium; 7 Days Post-Treatment,0 per cubic meter
same,Ulocladium spore Count,Ulocladium; 45 Days Post-Treatment,0 per cubic meter
same,Total spore Count,total spores; 7 Days Post-Treatment,320 per cubic meter
same,Total spore Count,total spores; 45 Days Post-Treatment,13 per cubic meter
same,time of treatment after which the fungus could not be detected by visual inspection,[5],about 30 days
same,Short Term Exposure Limit (STEL),[6]; TWA over any 15-minute period,0.3 ppmv
same,OSHA regulated Permissible Exposure Limit (PEL),[6]; time weighted average over 8 hours per day or 40-hour work week,0.1 ppmv
